Experiments:
Assay type in all cases: cell-based, mouse
[1] = tested on: α7 integrin (LacZ reporter in α7βgal+/− myoblasts); test: Myoblast α7+/LacZ integrin FDG assay (Burkin assay in myoblasts, 96-well); conditions: α7+/LacZ myoblasts, 96-well
[2] = tested on: α7 integrin (LacZ reporter in α7+/LacZ myotubes); test: Myotube α7 integrin FDG assay (Burkin assay in myotubes, 96-well); conditions: myotubes
[3] = tested on: β-galactosidase in CMV-LacZ C2C12 myotubes; test: CMV-LacZ secondary screen in C2C12 myotubes (β-Gal stabilizing assay); conditions: for CMV-LACZ in Myotubes (β-galactosidase activity relative to DMSO): CMV-LacZ C2C12 myotubes, 96-well format
Procedure, shortened: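 CMV-LacZ C2C12 line (clonal, FDG-screened); myoblasts/myotubes dosed 0.5–40 μM (0.5, 1, 5, 10, 20, 40 μM); n=2 per point; β-gal stabilization read-out.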

[4] = 5 uM, C2C12 CMV-LacZ myotubes, fold relative to DMSO
[5] = 10 uM, C2C12 CMV-LacZ myotubes, fold relative to DMSO
[6] = 20 uM, C2C12 CMV-LacZ myotubes, fold relative to DMSO
[7] = 40 uM, C2C12 CMV-LacZ myotubes, fold relative to DMSO

Compound	CMV-LACZ in Myotubes, signal relative to DMSO [3, 4]	CMV-LACZ in Myotubes, signal relative to DMSO [3, 5]	CMV-LACZ in Myotubes, signal relative to DMSO [3, 6]	CMV-LACZ in Myotubes, signal relative to DMSO [3, 7]	Burkin Assay in Myoblasts, signal relative to DMSO ([1]; 0.5 uM)	Burkin Assay in Myoblasts, signal relative to DMSO ([1]; 1 uM)	Burkin Assay in Myoblasts, signal relative to DMSO ([1]; 5 uM)	Burkin Assay in Myoblasts, signal relative to DMSO ([1]; 10 uM)	Burkin Assay in Myoblasts, signal relative to DMSO ([1]; 20 uM)	Burkin Assay in Myoblasts, signal relative to DMSO ([1]; 40 uM)	Burkin Assay in Myotubes, α7 integrin LacZ reporter signal relative to DMSO ([2]; 0.5 uM)	Burkin Assay in Myotubes, α7 integrin LacZ reporter signal relative to DMSO ([2]; 1 uM)	Burkin Assay in Myotubes, α7 integrin LacZ reporter signal relative to DMSO ([2]; 5 uM)	Burkin Assay in Myotubes, α7 integrin LacZ reporter signal relative to DMSO ([2]; 10 uM)	Burkin Assay in Myotubes, α7 integrin LacZ reporter signal relative to DMSO ([2]; 20 uM)	Burkin Assay in Myotubes, α7 integrin LacZ reporter signal relative to DMSO ([2]; 40 uM)	other results
COc1ccc(CNC(=O)CCN2C(=O)c3ccccc3C2=O)cc1 [MLS001200980-01]	0.8782	0.9568	0.9272	1.0886	–	–	–	–	–	–	–	–	–	–	–	–	Burkin Assay in Myoblasts, value relative to DMSO ([1]; 0.5 uM): 0.9918; Burkin Assay in Myoblasts, value relative to DMSO ([1]; 1 uM): 0.9255; Burkin Assay in Myoblasts, value relative to DMSO ([1]; 5 uM): 1.055; Burkin Assay in Myoblasts, value relative to DMSO ([1]; 10 uM): 0.9544; Burkin Assay in Myoblasts, value relative to DMSO ([1]; 20 uM): 0.9561; Burkin Assay in Myoblasts, value relative to DMSO ([1]; 40 uM): 0.9201; Burkin Assay in Myotubes (signal relative to DMSO) ([2]; 0.5 uM): 1.0669; Burkin Assay in Myotubes (signal relative to DMSO) ([2]; 1 uM): 1.022; Burkin Assay in Myotubes (signal relative to DMSO) ([2]; 5 uM): 1.121; Burkin Assay in Myotubes (signal relative to DMSO) ([2]; 10 uM): 1.216; Burkin Assay in Myotubes (signal relative to DMSO) ([2]; 20 uM): 1.015; Burkin Assay in Myotubes (signal relative to DMSO) ([2]; 40 uM): 0.9712
O=C(Nc1cc(Br)ccc1O)C1CC(c2ccccc2Cl)=NO1 (stereo not shown) [MLS001202627-01]	–	–	–	–	–	–	–	–	–	–	–	–	–	–	–	–	Burkin Assay in Myoblasts, value relative to DMSO ([1]; 0.5 uM): 1.172; Burkin Assay in Myoblasts, value relative to DMSO ([1]; 1 uM): 1.081; Burkin Assay in Myoblasts, value relative to DMSO ([1]; 5 uM): 0.9923; Burkin Assay in Myoblasts, value relative to DMSO ([1]; 10 uM): 0.7739; Burkin Assay in Myoblasts, value relative to DMSO ([1]; 20 uM): 0.5427; Burkin Assay in Myoblasts, value relative to DMSO ([1]; 40 uM): 0.2179; Burkin Assay in Myotubes (signal relative to DMSO) ([2]; 0.5 uM): 0.9687; Burkin Assay in Myotubes (signal relative to DMSO) ([2]; 1 uM): 0.7692; Burkin Assay in Myotubes (signal relative to DMSO) ([2]; 5 uM): 1.025; Burkin Assay in Myotubes (signal relative to DMSO) ([2]; 10 uM): 0.8124; Burkin Assay in Myotubes (signal relative to DMSO) ([2]; 20 uM): 0.9394; Burkin Assay in Myotubes (signal relative to DMSO) ([2]; 40 uM): 0.2335; CMV-LACZ in Myotubes (β-galactosidase activity relative to DMSO) ([3]; 5 uM): 0.9234; CMV-LACZ in Myotubes (β-galactosidase activity relative to DMSO) ([3]; 10 uM): 0.9555; CMV-LACZ in Myotubes (β-galactosidase activity relative to DMSO) ([3]; 20 uM): 0.9345; CMV-LACZ in Myotubes (β-galactosidase activity relative to DMSO) ([3]; 40 uM): 0.735
COc1ccc(NC(=O)c2ccc3nc(C)sc3c2)cc1 [MLS001204005-01]	–	–	–	–	–	–	–	–	–	–	–	–	–	–	–	–	fold induction at 0.5 µM ([1]; Mus musculus, Myoblast, 48 h, 0.5 uM, read-out: Burkin Assay in Myoblasts, value relative to DMSO): 1.08; fold induction at 1 µM ([1]; Mus musculus, Myoblast, 48 h, 1 uM, read-out: Burkin Assay in Myoblasts, value relative to DMSO): 1.15; fold induction at 5 µM ([1]; Mus musculus, Myoblast, 48 h, 5 uM, read-out: Burkin Assay in Myoblasts, value relative to DMSO): 1.02; fold induction at 10 µM ([1]; Mus musculus, Myoblast, 48 h, 10 uM, read-out: Burkin Assay in Myoblasts, value relative to DMSO): 1.24; fold induction at 20 µM ([1]; Mus musculus, Myoblast, 48 h, 20 uM, read-out: Burkin Assay in Myoblasts, value relative to DMSO): 1.23; fold induction at 40 µM ([1]; Mus musculus, Myoblast, 48 h, 40 uM, read-out: Burkin Assay in Myoblasts, value relative to DMSO): 1.17; fold induction at 0.5 µM ([2]; Mus musculus, Myotube, 0.5 uM, read-out: Burkin Assay in Myotubes (signal relative to DMSO)): 0.903; fold induction at 1 µM ([2]; Mus musculus, Myotube, 1 uM, read-out: Burkin Assay in Myotubes (signal relative to DMSO)): 0.987; fold induction at 5 µM ([2]; Mus musculus, Myotube, 5 uM, read-out: Burkin Assay in Myotubes (signal relative to DMSO)): 0.763; fold induction at 10 µM ([2]; Mus musculus, Myotube, 10 uM, read-out: Burkin Assay in Myotubes (signal relative to DMSO)): 1.02; fold induction at 20 µM ([2]; Mus musculus, Myotube, 20 uM, read-out: Burkin Assay in Myotubes (signal relative to DMSO)): 0.818; fold induction at 40 µM ([2]; Mus musculus, Myotube, 40 uM, read-out: Burkin Assay in Myotubes (signal relative to DMSO)): 1.16; fold induction at 5 µM ([3]; Mus musculus, C2C12, read-out: CMV-LACZ in Myotubes, signal relative to DMSO, 5 uM, C2C12 CMV-LacZ myotubes, fold relative to DMSO): 0.94; fold induction at 10 µM ([3]; Mus musculus, C2C12, read-out: CMV-LACZ in Myotubes, signal relative to DMSO, 10 uM, C2C12 CMV-LacZ myotubes, fold relative to DMSO): 1.14; fold induction at 20 µM ([3]; Mus musculus, C2C12, read-out: CMV-LACZ in Myotubes, signal relative to DMSO, 20 uM, C2C12 CMV-LacZ myotubes, fold relative to DMSO): 1.02; fold induction at 40 µM ([3]; Mus musculus, C2C12, read-out: CMV-LACZ in Myotubes, signal relative to DMSO, 40 uM, C2C12 CMV-LacZ myotubes, fold relative to DMSO): 0.781
COc1ccc2oc(C[S+]([O-])c3ccccc3)c(C(=O)O)c2c1 (stereo not shown) [MLS001208858-01]	0.944	0.8018	0.9471	0.9238	0.9851	1.003	0.8892	0.8759	0.8548	0.8425	1.095	0.9977	1.104	1.062	1.1	1.007	–
Cc1cccc(NC(=O)c2cc3ccccc3oc2=O)c1 [MLS001209245-01]	0.8568	0.9675	0.9662	0.9952	1.039	1.132	1.021	1.071	1.1	1.039	1.113	1.245	0.9667	0.9979	0.6876	0.5729	–
CCCNC(=S)N1CCC(NC(=O)c2ccc(OC)cc2)CC1 [MLS001211651-01]	0.8714	0.8433	0.8465	0.977	1.061	1.124	1.011	0.972	0.9909	1.026	0.8543	0.913	1.116	1.025	1.076	1.027	–
Cl.O=C(CN1CCOCC1)NCc1cc([N+](=O)[O-])ccc1O [MLS001211976-01]	0.8547	0.9979	0.9697	1.014	0.9583	0.946	0.9018	0.9154	0.9417	0.8952	1.032	1.2336	1.241	1.199	1.099	1.1302	–

Source: US9980943B2, “Methods of treating muscular dystrophy” (BOARD OF REGENTS OF THE NEVADA SYSTEM OF HIGHER EDUCATION, …, priority 2013, dated 2018)
